Results taken from patent publication US7109354B2, “Thiophene amidines, compositions thereof, and methods of treating complement-mediated diseases and conditions” (3-Dimensional Pharmaceuticals, Inc., priority 2002, dated 2006).
Counter-ions that a name gives are not always drawn.

target: T1, Activated human C1s (Homo sapiens, UniProt P09871); experiment: In vitro inhibition of C1s (Ki determination, C1s-catalyzed hydrolysis of Z-Gly-Arg-S-Bzl, DTNB readout); assay type: biochemical; conditions: substrate Z-Gly-Arg-S-Bzl 45 μM, DTNB 200 μM, C1s 2.3 nM, pH 7.5, 37° C., absorbance at 405 nm
T1 construct: purchased Calbiochem (La Jolla, Calif.)
T1 sequence (P09871 438-688 limits assumed): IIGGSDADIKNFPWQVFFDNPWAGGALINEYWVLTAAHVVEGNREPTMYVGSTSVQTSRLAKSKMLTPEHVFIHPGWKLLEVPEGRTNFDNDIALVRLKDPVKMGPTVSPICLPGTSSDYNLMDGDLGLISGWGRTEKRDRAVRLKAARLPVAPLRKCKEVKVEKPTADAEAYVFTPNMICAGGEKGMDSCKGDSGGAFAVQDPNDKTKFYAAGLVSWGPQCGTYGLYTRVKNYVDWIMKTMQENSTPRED
T1 sequence (P09871 16-437 partner limits assumed): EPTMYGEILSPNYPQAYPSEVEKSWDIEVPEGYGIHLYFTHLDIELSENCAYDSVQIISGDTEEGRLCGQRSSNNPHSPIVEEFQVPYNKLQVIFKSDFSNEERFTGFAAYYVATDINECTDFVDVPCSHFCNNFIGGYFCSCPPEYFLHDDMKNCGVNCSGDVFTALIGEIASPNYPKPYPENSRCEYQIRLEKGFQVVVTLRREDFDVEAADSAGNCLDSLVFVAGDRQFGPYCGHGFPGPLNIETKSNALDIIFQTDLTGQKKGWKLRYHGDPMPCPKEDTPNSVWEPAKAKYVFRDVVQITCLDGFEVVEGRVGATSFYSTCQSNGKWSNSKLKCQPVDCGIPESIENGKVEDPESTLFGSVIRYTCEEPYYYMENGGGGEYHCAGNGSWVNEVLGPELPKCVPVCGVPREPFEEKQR

Ki, 6 to 23 nM:
CSc1sc(C(=N)N)cc1S(=O)(=O)c1cccc(-c2c(C)cccc2NC(=O)NCCNS(C)(=O)=O)c1 [Example 195, 4-{2′-[3-(2-Methanesulfonylamino-ethyl)-ureido]-6′-methyl-biphenyl-3-sulfonyl}-5-methylsulfanyl-thiophene-2-carboxamidine trifluoroacetate]
CSc1sc(C(=N)N)cc1S(=O)(=O)c1cccc(-c2c(C)cccc2NC(=O)NCCCc2ccccc2)c1 [Example 203, 4-{6′-Methyl-2′-[3-(3-phenyl-propyl)-ureido]-biphenyl-3-sulfonyl}-5-methylsulfanyl-thiophene-2-carboxamidine trifluoroacetate]
CSc1sc(C(=N)N)cc1S(=O)(=O)c1cccc(-c2c(C)cccc2NC(=O)NCCc2c[nH]c3ccccc23)c1 [Example 207, 4-(2′-{3-[2-(1H-Indol-3-yl)-ethyl]-ureido}-6′-methyl-biphenyl-3-sulfonyl)-5-methylsulfanyl-thiophene-2-carboxamidine trifluoroacetate]
CSc1sc(C(=N)N)cc1S(=O)(=O)c1cccc(-c2c(C)cccc2NC(=O)CCCS(C)(=O)=O)c1 [Example 209, N-[3′-(5-Carbamimidoyl-2-methylsulfanyl-thiophene-3-sulfonyl)-6-methyl-biphenyl-2-yl]-4-methanesulfonyl-butyramide trifluoroacetate]
CSc1sc(C(=N)N)cc1S(=O)(=O)c1cccc(-c2c(C)cccc2NC(=O)CCCS(N)(=O)=O)c1 [Example 210, N-[3′-(5-Carbamimidoyl-2-methylsulfanyl-thiophene-3-sulfonyl)-6-methyl-biphenyl-2-yl]-4-sulfamoyl-butyramide trifluoroacetate]
CSc1sc(C(=N)N)cc1S(=O)(=O)c1cccc(-c2c(C)cccc2NC(=O)CCCCCCCCCCN)c1 [Example 211, 11-Amino-undecanoic acid [3′-(5-carbamimidoyl-2-methylsulfanyl-thiophene-3-sulfonyl)-6-methyl-biphenyl-2-yl]-amide bistrifluoroacetate]
CSc1sc(C(=N)N)cc1S(=O)(=O)c1cccc(-c2ccc(F)cc2C)c1 [Example 219, 4-(4′-Fluoro-2′-methyl-biphenyl-3-sulfonyl)-5-methylsulfanyl-thiophene-2-carboxamidine trifluoroacetate]
CSc1sc(C(=N)N)cc1S(=O)(=O)c1cccc(-c2ccc(N)cc2C)c1 [Example 220, 4-(4′-Amino-2′-methyl-biphenyl-3-sulfonyl)-5-methylsulfanyl-thiophene-2-carboxamidine bis-trifluoroacetate]
CSc1sc(C(=N)N)cc1S(=O)(=O)c1cccc(-c2c(C)cc(O)cc2C)c1 [Example 224, 4-(4′-Hydroxy-2′,6′-dimethyl-biphenyl-3-sulfonyl)-5-methylsulfanyl-thiophene-2-carboxamidine trifluoroacetate]
CSc1sc(C(=N)N)cc1S(=O)(=O)c1cccc(-c2ccc(NC(N)=O)cc2C)c1 [Example 228, 5-Methylsulfanyl-4-(2 ′-methyl-4′-ureido-biphenyl-3-sulfonyl)-thiophene-2-carboxamidine trifluoroacetate]
CSc1sc(C(=N)N)cc1S(=O)(=O)c1cccc(-c2ccc(NC(=O)[C@@H](N)CCC(=O)O)cc2C)c1 [Example 231, 4-Amino-4-[3′-(5-carbamimidoyl-2-methylsulfanyl-thiophene-3-sulfonyl)-2-methyl-biphenyl-4-ylcarbamoyl]-butyric acid bis-trifluoroacetate]
CSc1sc(C(=N)N)cc1S(=O)(=O)c1cccc(-c2ccc(NC3=NCCN3)cc2C)c1 [Example 233, 4-[4′-(4,5-Dihydro-1H-imidazol-2-ylamino)-2′-methyl-biphenyl-3-sulfonyl]-5-methylsulfanyl-thiophene-2-carboxamidine bis-trifluoroacetate]
CSc1sc(C(=N)N)cc1S(=O)(=O)c1cccc(-c2c(C)cc(NC(=N)N)cc2[N+](=O)[O-])c1 [Example 236, 4-(4′-Guanidino-2′-methyl-6′-nitro-biphenyl-3-sulfonyl)-5-methylsulfanyl-thiophene-2-carboxamidine bis-trifluoroacetate]
CSc1sc(C(=N)N)cc1S(=O)(=O)c1cccc(-c2c(C)cc(NC(=N)N)cc2N)c1 [Example 237, 4-(6′-Amino-4′-guanidino-2′-methyl-biphenyl-3-sulfonyl)-5-methylsulfanyl-thiophene-2-carboxamidine bis-trifluoroacetate]
COC(=O)CCSCC(=O)Nc1cc(NC(=N)N)cc(C)c1-c1cccc(S(=O)(=O)c2cc(C(=N)N)sc2SC)c1 [Example 238, 3-{[3′-(5-Carbamimidoyl-2-methylsulfanyl-thiophene-3-sulfonyl)-4-guanidino-6-methyl-biphenyl-2-ylcarbamoyl]-methylsulfanyl}-propionic acid methyl ester bis-trifluoroacetate]
CSc1sc(C(=N)N)cc1S(=O)(=O)c1cccc(-c2c(C)cc(NC(=N)N)cc2NC(=O)CSCCC(=O)O)c1 [Example 239, 3-{[3′-(5-Carbamimidoyl-2-methylsulfanyl-thiophene-3-sulfonyl)-4-guanidino-6-methyl-biphenyl-2-ylcarbamoyl]-methylsulfanyl}-propionic acid bis-trifluoroacetate]
CSc1sc(C(=N)N)cc1S(=O)(=O)c1cccc(-c2c(C)cccc2NC(=O)NCCCCCC(=O)O)c1 [Example 240, 6-{3-[3′-(5-Carbamimidoyl-2-methylsulfanyl-thiophene-3-sulfonyl)-6-methyl-biphenyl-2-yl]-ureido}-hexanoic acid trifluoroacetate]
CSc1sc(C(=N)N)cc1S(=O)(=O)c1cccc(-c2c(C)cccc2NC(=O)NCCc2ccccc2)c1 [Example 242, 4-[2′-Methyl-6′-(3-phenethyl-ureido)-biphenyl-3-sulfonyl]-5-methylsulfanyl-thiophene-2-carboxamidine trifluoroacetate]
CSc1sc(C(=N)N)cc1S(=O)(=O)c1cccc(-c2c(C)cccc2NC(=O)CSCC(N)=O)c1 [Example 246, 2-{[3′-(5-Carbamimidoyl-2-methylsulfanyl-thiophene-3-sulfonyl)-6-methyl-biphenyl-2-ylcarbamoyl]-methylsulfanyl}-acetamide trifluoroacetate]
COc1cc(C)c(-c2cccc(S(=O)(=O)c3cc(C(=N)N)sc3SC)c2)c(NC(=O)CSCCC(=O)O)c1 [Example 252, 3-{[3′-(5-Carbamimidoyl-2-methylsulfanyl-thiophene-3-sulfonyl)-4-methoxy-6-methyl-biphenyl-2-ylcarbamoyl]-methylsulfanyl}-propionic acid trifluoroacetate]
COc1cc(C)c(-c2cccc(S(=O)(=O)c3cc(C(=N)N)sc3SC)c2)c(NC(=O)CS(C)(=O)=O)c1 [Example 254, N-[3′-(5-Carbamimidoyl-2-methylsulfanyl-thiophene-3-sulfonyl)-4-methoxy-6-methyl-biphenyl-2-yl]-2-methanesulfonyl-acetamide trifluoroacetate]
